Test systems include SF-268 CNS; EKVX NSCLC; SK-MEL-2 melanoma; SK-MEL-5 melanoma; SK-OV-3 ovarian; TK-10 renal; HT29 colon; SW-620 colon; SNB-75 CNS; UO-31 renal; KM12 colon; LOX IMVI melanoma; NCI-H226 lung; HOP-92 NSCLC; NCI/ADR-RES ovarian; ACHN renal; MDA-MB-435; HCT-15 colon; OVCAR-8 ovarian; RPMI-8226 leukemia.
Holding throughout (assay): growth of human tumour cells (NCI), 48 h

The values that follow come from PubChem BioAssay (NCI).

Each structure is given as a SMILES string.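 48-hour exposure; five concentrations; linearly interpolated endpoints. TGI: concentration producing complete growth inhibition.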

Turning to `CCOC(=O)CC1(O)CCCCC1(Sc1ccc(C)cc1)Sc1ccc(C)cc1` (stereo not drawn), the TGI was more than 100 µM in the assay on SF-268 CNS; more than 100 µM in the assay on EKVX NSCLC; 65.9 µM in the assay with SK-MEL-2 melanoma; more than 100 µM in the assay on SK-MEL-5 melanoma; more than 100 µM in the assay with SK-OV-3 ovarian; more than 100 µM in the assay with TK-10 renal. Moreover, the TGI in the assay with HT29 colon, in the assay on SW-620 colon, in the assay on SNB-75 CNS, with UO-31 renal, with KM12 colon and in the assay with LOX IMVI melanoma was more than 100 µM throughout. The TGI with NCI-H226 lung, in the assay on HOP-92 NSCLC, in the assay with NCI/ADR-RES ovarian, in the assay on ACHN renal, in the assay on MDA-MB-435 and with HCT-15 colon was more than 100 µM each time. The TGI in the assay on OVCAR-8 ovarian was more than 100 µM.
With `Cc1nn(C(=O)c2ccc(Cl)cc2)c2c1C(c1cccc([N+](=O)[O-])c1)SC(N)=N2` (stereo not drawn), the TGI in the assay on SF-268 CNS, in the assay with EKVX NSCLC, in the assay with SK-MEL-2 melanoma, in the assay on SK-MEL-5 melanoma, with SK-OV-3 ovarian and in the assay on TK-10 renal was more than 10 µM throughout. For the same molecule, the TGI with HT29 colon, in the assay with SW-620 colon, in the assay on RPMI-8226 leukemia, in the assay with SNB-75 CNS, in the assay on KM12 colon and in the assay on LOX IMVI melanoma was more than 10 µM each time. For the same molecule, the TGI is more than 10 µM in the assay on NCI-H226 lung; more than 10 µM in the assay with HOP-92 NSCLC; more than 10 µM in the assay on NCI/ADR-RES ovarian; more than 10 µM in the assay with ACHN renal; more than 10 µM in the assay on MDA-MB-435; 7.51 µM with HCT-15 colon. Moreover, in the assay on OVCAR-8 ovarian, the TGI was more than 10 µM.
On to `CCN(CC)CCCNc1nc(=O)[nH]c(C)c1C(=O)Nc1c2ccccc2nc2ccccc12`, for which the TGI in the assay with EKVX NSCLC is 74.5 µM; with SK-MEL-2 melanoma it was more than 100 µM; in the assay with SK-MEL-5 melanoma, 29 µM; in the assay with SK-OV-3 ovarian, 59 µM; in the assay with TK-10 renal, more than 100 µM; with HT29 colon, 26.2 µM. For the same molecule, the TGI with SW-620 colon was more than 100 µM; in the assay with RPMI-8226 leukemia, 47.4 µM; in the assay on SNB-75 CNS, 55.5 µM; in the assay on UO-31 renal, 32.3 µM; in the assay on KM12 colon it was 26.5 µM; in the assay with LOX IMVI melanoma, 45.4 µM. Besides, the TGI with NCI-H226 lung is 93.8 µM; in the assay on HOP-92 NSCLC, 13.3 µM; with NCI/ADR-RES ovarian, 45.7 µM; in the assay on ACHN renal, 57.4 µM; in the assay on MDA-MB-435 it was more than 100 µM; in the assay on HCT-15 colon, 72.8 µM. Also, in the assay on OVCAR-8 ovarian, the TGI came to 59.1 µM.
Turning to `ClCCN1CCOC1=Nc1ccc2c(c1)CCCC2`, the TGI was 47.7 µM in the assay with SF-268 CNS; 42.3 µM with EKVX NSCLC; 38.1 µM with SK-MEL-2 melanoma; 7.38 µM with SK-MEL-5 melanoma; 74.9 µM with SK-OV-3 ovarian; 33.1 µM in the assay on HT29 colon. Moreover, the TGI with SW-620 colon is 61.2 µM; with RPMI-8226 leukemia it was 26.2 µM; in the assay on SNB-75 CNS, 28.7 µM; with UO-31 renal, 30.3 µM; in the assay on KM12 colon it was 32 µM; in the assay on LOX IMVI melanoma it was 32.3 µM. In addition, the TGI turned out to be 30.9 µM in the assay on NCI-H226 lung; 30.7 µM with HOP-92 NSCLC; 51.9 µM with NCI/ADR-RES ovarian; 28.1 µM with ACHN renal; 29.2 µM with MDA-MB-435; 48.6 µM with HCT-15 colon. The molecule further returned a TGI with OVCAR-8 ovarian of 17.3 µM.
Turning to `O=C(O)[C@@H]1CCC(=O)N1C(c1ccc2c(c1)OCO2)c1ccc2c(c1)OCO2`, the TGI in the assay with SF-268 CNS, in the assay with EKVX NSCLC, with SK-MEL-2 melanoma, with SK-MEL-5 melanoma, in the assay on TK-10 renal and in the assay on HT29 colon was more than 100 µM throughout. In addition, the TGI in the assay on SW-620 colon, in the assay with RPMI-8226 leukemia, with SNB-75 CNS, in the assay with UO-31 renal, in the assay on KM12 colon and with LOX IMVI melanoma was more than 100 µM throughout. The TGI in the assay with NCI-H226 lung, in the assay on HOP-92 NSCLC, in the assay with NCI/ADR-RES ovarian, with ACHN renal, in the assay on MDA-MB-435 and with HCT-15 colon was more than 100 µM each time. The same molecule displayed a TGI in the assay on OVCAR-8 ovarian of more than 100 µM.
Consider `Fc1ccc(OCc2nc3cc(C(F)(F)F)ccc3nc2-c2ccccc2)cc1`, for which the TGI in the assay on SF-268 CNS was more than 100 µM; in the assay on EKVX NSCLC it was more than 100 µM; with SK-MEL-2 melanoma it was more than 100 µM; in the assay on SK-MEL-5 melanoma it was more than 100 µM; in the assay with TK-10 renal, more than 100 µM; with HT29 colon, 64.9 µM. Besides, the TGI in the assay on SW-620 colon, in the assay on RPMI-8226 leukemia, in the assay on SNB-75 CNS, in the assay with UO-31 renal, with KM12 colon and in the assay with LOX IMVI melanoma was more than 100 µM in each case. Moreover, the TGI in the assay on NCI-H226 lung, with HOP-92 NSCLC, in the assay with NCI/ADR-RES ovarian, in the assay on ACHN renal, with MDA-MB-435 and in the assay on HCT-15 colon was more than 100 µM each time. Moreover, the TGI in the assay with OVCAR-8 ovarian was more than 100 µM.
As to `CN1C(=O)N/C(=C\c2ccc(S(=O)(=O)N/N=C\C(O)C(O)C(O)CO)cc2)C1=O` (stereo not drawn), the TGI in the assay on SF-268 CNS, with EKVX NSCLC, with SK-MEL-2 melanoma, with SK-MEL-5 melanoma, in the assay on SK-OV-3 ovarian and in the assay on TK-10 renal was more than 100 µM in each case. Further, the TGI in the assay with HT29 colon, in the assay with SW-620 colon, with RPMI-8226 leukemia, in the assay with SNB-75 CNS, in the assay on UO-31 renal and in the assay on KM12 colon was more than 100 µM throughout. Also, the TGI with LOX IMVI melanoma, with HOP-92 NSCLC, in the assay with NCI/ADR-RES ovarian, with ACHN renal, with MDA-MB-435 and in the assay with HCT-15 colon was more than 100 µM throughout. Further, in the assay on OVCAR-8 ovarian, the TGI is more than 100 µM.
